The record followed here is patent EP0091090A2, “Bipyridine substituted imidazolidene copper complex and its use in food-producing animals, and bipyridine, 2,2'-(2-imidazolidinylidene) di-copper complex and use in animals” (INTERNATIONAL MINERALS & CHEMICAL CORPORATION, priority 1982, dated 1983).

In one experiment the test system is rumen microflora. The experiment can be described thus: Batch culture assay for the degradation of starch (Example 3). The experiment is classed as cell-based, steers. The source says: The subject Formula ^IV compound was also compared to monensin in another rumen fluid batch culture test as set forth below. The test was designed to screen compounds for inhibition of starch breakdown by the rumen microflora. […] It is considered more desirable to avoid degradation of starch in the rumen so that it is passed on into the abomasum where it can be digested more efficiently. […] Test Procedure: Animals - Mature fistulated steers were maintained on concentrate, roughage, or concentrate/ roughage (50/50) rations. Animals were fed twice daily at 8:00 A.M. and 4:00 P.M.
Culture Assays - Approximately two liters of rumen fluid were collected from fistulated animals with the use of a hand pump. The rumen fluid, collected in a stoppered flask, was then immediately taken to the laboratory for processing. Samples were taken at 8:00 A.M. just prior to the first feeding or at 1:00 P.M. (ca. 4-5 hours after the first feeding). Rumen fluid was strained through six layers of cotton gauze cloth into a flask that was flushed with C02 gas. The filtrate was centrifuged for 5 minutes at 100 rpm in a Sorvall centrifuge to remove large particulate material. The supernatant was again passed through six layers of gauze into a flask under C02 gas and stoppered.
Batch Culture Assay for the Degradation of Starch - Twenty-five ml of rumen fluid prepared as above was added to serum vials (Wheaton Glass, 100 ml capacity) containing 0.25-1.00% final concentration starch as an energy substrate in 25 ml batch culture assay buffer. The serum vials were sealed under C02 gas phase, and incubations were carried out for 20-24 hours at 39°C on a New Brunswick rotary shaker (250 rpm). Each experimental vial was done in triplicate. The corn starch used in degradation experiments was previously washed with distilled water several times, filtered through an 8 micron (47 mm) Millipore filter, and dried at 90°C for 24 hours.
At intervals of 0 and 24 hours, the entire contents in vials were centrifuged at 250 rpm for 5 minutes. The supernatants were carefully removed with a pipet and the remaining "starch pellets" resuspended in water and passed through borosilicate glass microfiber prefilters (Millipore AP 20-047-00). Filters were dried in an oven for 24 hours at 90°C, cooled and then weighed. The amount of starch remaining after 24 hours' incubation was compared with the amount present at 0 hours and the per cent of substrate degraded calculated.

The nature of experiment [1]: Methane production in growing lambs, respiration calorimetry (Example 4). Type of experiment: in vivo. The note with it: 75 ppm in diet, 3 days treated feed, versus negative control. The text has this: Animal Test: The object of this test is to determine the effect of the test compound on methane production in growing animals (ruminants). A decrease in methane production is an indication of increased utilization of the animals' feed supply, and possibly an indication of the effectiveness of the compound as a growth promoter.
Test Procedure: The test animals are housed in special respiration calorimetry facilities during the tests so that all metabolic gases can be collected and measured.
Twelve wether lambs, weighing between 20 and 25 kg, were selected from a group of lambs purchased from the California Livestock Marketing Association. The animals were processed according to standard procedures after arrival, and they were ear tagged for identification purposes and weighed prior to being moved to the respiration calorimetry facility.
Experimental Design - The animals were fed 500 grams of a 30% concentrate diet (Table 4) twice daily.
The Formula IV compound was tested in three animals at a level of 75 ppm. The test period was one week. […] Methane production was monitored during this time. […]
Sample Collection and Analysis - Since only the gas data on methane was of interest, urine and feces were collected daily and discarded. […] These samples were analyzed by gas chromatography to get a qualitative measure of […] production. […]

The substance “2,2'-(4,5-diphenyl-2H-imidazol-2-ylidene)bispyridine with CuCl2(1/1) [Formula IV Compound]” displayed a starch degraded with rumen microflora (50 ppm, relative to unincubated control rumen fluid batch culture) of 28.7%. Also, in the experiment on rumen microflora (75 ppm, relative to unincubated control), the “per cent starch degraded” value is 13.9%. For the same substance, the methane production entry in experiment [1] is given as “significant decrease”.
